In patent US20230278972A1, “SUBSTITUTED HALOALKYL SULFONANILIDE HERBICIDES” (FMC Corporation, priority 2020, published 2023):

Experiments:
Assay type in all cases: in vivo
[1] = tested on: wheat (Triticum aestivum); assay: Test A postemergence, wheat; settings: Postemergence
Outline: (§1)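 Seeds are sown in loam mixed with sand and sprayed on the soil surface right after planting for the preemergence test. Postemergence pots are sprayed once seedlings reach 2 to 10 cm at the one- to two-leaf stage. The same surfactant-containing, non-phytotoxic solvent formulation serves both.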

kochia (Bassia scoparia) [2] = assay: Test A postemergence, kochia; settings: Postemergence
Outline: (§2)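 Preemergence: seeded pots of loam plus sand received a directed soil spray. Postemergence: seedlings at one to two leaves, 2 to 10 cm high, were oversprayed. Each compound was formulated in a non-phytotoxic solvent mix that included a surfactant.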

[3] = tested on: Ryegrass, Italian (Italian ryegrass, Lolium multiflorum); assay: Test A postemergence, Ryegrass, Italian; settings: Postemergence
Outline: as §2

[4] = tested on: Ryegrass, Italian (Italian ryegrass, Lolium multiflorum); assay: Test A preemergence, Ryegrass, Italian; settings: Preemergence; for Plant response rating, Ryegrass, Italian: 31 g ai/ha, visual injury, 0 to 100 scale (0 no effect, 100 complete control), approx. 10 days; for Ryegrass, Italian plant response rating: 125 g ai/ha, visual injury on 0 to 100 scale (0 no effect, 100 complete control), approximately 10 days
Outline: as §2

[5] = tested on: pigweed (Amaranthus retroflexus); assay: Test A preemergence, pigweed; settings: for Plant response rating, Pigweed: 31 g ai/ha, visual injury, 0 to 100 scale (0 no effect, 100 complete control), approx. 10 days; for Pigweed plant response rating: 125 g ai/ha, visual injury on 0 to 100 scale (0 no effect, 100 complete control), approximately 10 days
Outline: as §1

kochia (Bassia scoparia) [6] = assay: Test A preemergence, kochia; settings: Preemergence; for Plant response rating, Kochia: 31 g ai/ha, visual injury, 0 to 100 scale (0 no effect, 100 complete control), approx. 10 days; for Kochia plant response rating: 125 g ai/ha, visual injury on 0 to 100 scale (0 no effect, 100 complete control), approximately 10 days
Outline: as §2

corn (Zea mays) = assay: Test A postemergence, corn; settings: Postemergence
Outline: as §2

[7] = tested on: blackgrass (Alopecurus myosuroides); assay: Test A postemergence, blackgrass; settings: Postemergence
Outline: as §2

[8] = tested on: ragweed (common ragweed, Ambrosia artemisiifolia); assay: Test A postemergence, ragweed; settings: Postemergence
Outline: as §2

[9] = tested on: barnyardgrass (Echinochloa crus-galli); assay: Test A postemergence, barnyardgrass; settings: Postemergence
Outline: as §1

[10] = tested on: galium (catchweed bedstraw, Galium aparine); assay: Test A postemergence, galium; settings: Postemergence
Outline: as §1

[11] = tested on: Foxtail, Giant (giant foxtail, Setaria faberi); assay: Test A preemergence, Foxtail, Giant; settings: Preemergence; for Plant response rating, Foxtail, Giant: 31 g ai/ha, visual injury, 0 to 100 scale (0 no effect, 100 complete control), approx. 10 days; for Foxtail, Giant plant response rating: 125 g ai/ha, visual injury on 0 to 100 scale (0 no effect, 100 complete control), approximately 10 days
Outline: as §2

[12] = tested on: ragweed (common ragweed, Ambrosia artemisiifolia); assay: Test A preemergence, ragweed; settings: Preemergence; for Plant response rating, Ragweed: 31 g ai/ha, visual injury, 0 to 100 scale (0 no effect, 100 complete control), approx. 10 days; for Ragweed plant response rating: 125 g ai/ha, visual injury on 0 to 100 scale (0 no effect, 100 complete control), approximately 10 days
Outline: as §2

[13] = tested on: pigweed (Amaranthus retroflexus); assay: Test A postemergence, pigweed; settings: Postemergence
Outline: as §2

[14] = tested on: barnyardgrass (Echinochloa crus-galli); assay: Test A preemergence, barnyardgrass; settings: Preemergence; for Plant response rating, Barnyardgrass: 31 g ai/ha, visual injury, 0 to 100 scale (0 no effect, 100 complete control), approx. 10 days; for Barnyardgrass plant response rating: 125 g ai/ha, visual injury on 0 to 100 scale (0 no effect, 100 complete control), approximately 10 days
Outline: as §2

[15] = tested on: Foxtail, Giant (giant foxtail, Setaria faberi); assay: Test A postemergence, Foxtail, Giant; settings: Postemergence
Outline: as §2

[16] = 31 g ai/ha, visual injury on 0 to 100 scale (0 no effect, 100 complete control), approx. 10 days
[17] = 125 g ai/ha, 0 to 100 scale (0 no effect, 100 complete control)
[18] = 31 g ai/ha, 0 to 100 scale (0 no effect, 100 complete control)

SMILES	Plant response rating, Wheat [1, 16]	Plant response rating, Wheat [1, 17]	Plant response rating, Kochia (kochia (Bassia scoparia) [2]; [16])	Plant response rating, Kochia (kochia (Bassia scoparia) [2]; [17])	Plant response rating, Ryegrass, Italian [3, 16]	Plant response rating, Ryegrass, Italian [3, 17]	Plant response rating, Ryegrass, Italian [4]	Ryegrass, Italian plant response rating [4]	Plant response rating, Pigweed [5]	Pigweed plant response rating [5]	Plant response rating, Kochia (kochia (Bassia scoparia) [6])	Kochia plant response rating (kochia (Bassia scoparia) [6])	Plant response rating, Corn (corn (Zea mays); [16])	Plant response rating, Corn (corn (Zea mays); [17])	Plant response rating, Blackgrass [7, 17]	Plant response rating, Ragweed [8, 16]	Plant response rating, Ragweed [8, 17]	Plant response rating, Barnyardgrass [9, 17]	Plant response rating, Galium [10, 16]	Plant response rating, Galium [10, 17]	also measured
CCC(C)C(=O)OCN(c1cc(C2=NOC3(CCCC3)C2)c(C)cc1C)S(=O)(=O)C(F)(F)F (centres unmarked) [Compound 151]	0	50	10	10	0	0	30	90	50	90	0	0	0	10	0	0	40	30	60	70	Plant response rating, Blackgrass [7, 18]: 0; Plant response rating, Barnyardgrass [9, 18]: 0; Plant response rating, Foxtail, Giant [11]: 60; Foxtail, Giant plant response rating [11]: 100; Plant response rating, Ragweed [12]: 0; Ragweed plant response rating [12]: 30; Plant response rating, Pigweed [13, 16]: 30; Plant response rating, Pigweed [13, 17]: 30; Plant response rating, Barnyardgrass [14]: 0; Barnyardgrass plant response rating [14]: 90; Plant response rating, Foxtail, Giant [15, 16]: 0; Plant response rating, Foxtail, Giant [15, 17]: 30
Cc1cc(C)c(N(COC(=O)CC(C)C)S(=O)(=O)C(F)(F)F)cc1C1=NOC2(CCCC2)C1 [Compound 152]	40	30	10	10	0	0	0	40	30	100	0	0	10	0	0	0	40	10	20	60	Plant response rating, Blackgrass [7, 16]: 0; Plant response rating, Barnyardgrass [9, 16]: 0; Plant response rating, Foxtail, Giant [11]: 40; Foxtail, Giant plant response rating [11]: 80; Plant response rating, Ragweed [12]: 0; Ragweed plant response rating [12]: 30; Plant response rating, Pigweed [13, 16]: 30; Plant response rating, Pigweed [13, 17]: 60; Plant response rating, Barnyardgrass [14]: 0; Barnyardgrass plant response rating [14]: 70; Plant response rating, Foxtail, Giant [15, 16]: 10; Plant response rating, Foxtail, Giant [15, 17]: 10
Cc1cc(Cl)c(NS(=O)(=O)C(F)(F)F)cc1C(=O)N1CCOCC1(C)C [Compound 153]	0	30	0	10	30	80	30	70	80	90	60	80	0	20	50	30	70	50	60	70	Plant response rating, Blackgrass [7, 16]: 0; Plant response rating, Barnyardgrass [9, 16]: 10; Plant response rating, Foxtail, Giant [11]: 40; Foxtail, Giant plant response rating [11]: 90; Plant response rating, Ragweed [12]: 40; Ragweed plant response rating [12]: 60; Plant response rating, Pigweed [13, 16]: 0; Plant response rating, Pigweed [13, 17]: 30; Plant response rating, Barnyardgrass [14]: 0; Barnyardgrass plant response rating [14]: 70; Plant response rating, Foxtail, Giant [15, 16]: 10; Plant response rating, Foxtail, Giant [15, 17]: 20
CCOC1CCCN(C(=O)c2cc(NS(=O)(=O)C(F)(F)F)c(C)cc2C)C1 (centres unmarked) [Compound 154]	30	70	10	30	0	0	20	70	20	100	0	40	0	10	20	0	20	70	50	80	Plant response rating, Blackgrass [7, 16]: 0; Plant response rating, Barnyardgrass [9, 16]: 30; Plant response rating, Foxtail, Giant [11]: 60; Foxtail, Giant plant response rating [11]: 90; Plant response rating, Ragweed [12]: 50; Ragweed plant response rating [12]: 80; Plant response rating, Pigweed [13, 16]: 40; Plant response rating, Pigweed [13, 17]: 60; Plant response rating, Barnyardgrass [14]: 0; Barnyardgrass plant response rating [14]: 50; Plant response rating, Foxtail, Giant [15, 16]: 20; Plant response rating, Foxtail, Giant [15, 17]: 20
